Test results published in US20230085307A1, “PYRIDAZINONE COMPOUND AND HERBICIDE” (NISSAN CHEMICAL CORPORATION, priority 2019, published 2023).

Columns and labels:
[1] = tested on: windgrass; experiment: Test Example 5: herbicidal effect by foliage application, plastic box (Table 20, symbol L); format: in vivo, windgrass (Apera spica-venti); conditions: foliage application, 80 g/ha, 3 weeks after application
In short: (§1)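 Post-emergence foliar test in sterilized diluvial soil. Compound applied as water-diluted emulsion at a predetermined rate to 14-day-old plants; evaluation at three weeks.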

[2] = tested on: green foxtail; experiment: Test Example 4: herbicidal effect by soil treatment (Table 19, symbol G); format: in vivo, green foxtail (Setaria viridis)
In short: (§2)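 Emulsion of test compound, water-diluted to predetermined amount, sprayed on soil after sowing (seed depth ~1.5 cm, sterilized diluvial soil). Greenhouse, 25–30° C. Effect graded at three weeks post-spray.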

[3] = tested on: wild oat; experiment: Test Example 4: herbicidal effect by soil treatment (Table 19, symbol I); format: in vivo, wild oat (Avena fatua)
In short: as §2

[4] = tested on: Italian ryegrass; experiment: Test Example 5: herbicidal effect by foliage application, plastic box (Table 20, symbol K); format: in vivo, Italian ryegrass (Lolium multiflorum); conditions: foliage application, 80 g/ha, 3 weeks after application
In short: as §1

[5] = tested on: southern crabgrass; experiment: Test Example 4: herbicidal effect by soil treatment (Table 19, symbol F); format: in vivo, southern crabgrass (Digitaria ciliaris)
In short: as §2

[6] = tested on: persian speedwell; experiment: Test Example 4: herbicidal effect by soil treatment (Table 19, symbol R); format: in vivo, Persian speedwell (Veronica persica)
In short: as §2

[7] = tested on: barnyard grass; experiment: Test Example 3: herbicidal effect by foliage application, Wagner pot (Table 18, symbol H); format: in vivo, barnyard grass (Echinochloa crus-galli)
In short: (§3)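 Plants were sown in alluvial soil held under 0.1–0.5 cm standing water and grown 14 days in a greenhouse at 25–30 °C. An emulsifiable formulation, water-diluted to the set dose, was then sprayed onto the foliage, and effects were scored three weeks later using previously defined criteria.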

[8] = tested on: blackgrass; experiment: Test Example 4: herbicidal effect by soil treatment (Table 19, symbol J); format: in vivo, blackgrass (Alopecurus myosuroides)
In short: as §2

[9] = tested on: blackgrass; experiment: Test Example 5: herbicidal effect by foliage application, plastic box (Table 20, symbol J); format: in vivo, blackgrass (Alopecurus myosuroides); conditions: foliage application, 80 g/ha, 3 weeks after application
In short: as §1

[10] = tested on: lambsquarters; experiment: Test Example 5: herbicidal effect by foliage application, plastic box (Table 20, symbol O); format: in vivo, lambsquarters (Chenopodium album); conditions: foliage application, 80 g/ha, 3 weeks after application
In short: as §1

[11] = tested on: Italian ryegrass; experiment: Test Example 4: herbicidal effect by soil treatment (Table 19, symbol K); format: in vivo, Italian ryegrass (Lolium multiflorum)
In short: as §2

[12] = tested on: barnyard grass; experiment: Test Example 5: herbicidal effect by foliage application, plastic box (Table 20, symbol H); format: in vivo, barnyard grass (Echinochloa crus-galli); conditions: foliage application, 80 g/ha, 3 weeks after application
In short: as §1

[13] = tested on: barnyard grass; experiment: Test Example 4: herbicidal effect by soil treatment (Table 19, symbol H); format: in vivo, barnyard grass (Echinochloa crus-galli)
In short: as §2

[14] = tested on: green foxtail; experiment: Test Example 5: herbicidal effect by foliage application, plastic box (Table 20, symbol G); format: in vivo, green foxtail (Setaria viridis); conditions: foliage application, 80 g/ha, 3 weeks after application
In short: as §1

[15] = tested on: velvetleaf; experiment: Test Example 4: herbicidal effect by soil treatment (Table 19, symbol M); format: in vivo, velvetleaf (Abutilon theophrasti)
In short: as §2

[16] = tested on: windgrass; experiment: Test Example 4: herbicidal effect by soil treatment (Table 19, symbol L); format: in vivo, windgrass (Apera spica-venti)
In short: as §2

[17] = tested on: wild oat; experiment: Test Example 5: herbicidal effect by foliage application, plastic box (Table 20, symbol I); format: in vivo, wild oat (Avena fatua); conditions: foliage application, 80 g/ha, 3 weeks after application
In short: as §1

[18] = tested on: persian speedwell; experiment: Test Example 5: herbicidal effect by foliage application, plastic box (Table 20, symbol R); format: in vivo, Persian speedwell (Veronica persica); conditions: foliage application, 80 g/ha, 3 weeks after application
In short: as §1

[19] = tested on: lambsquarters; experiment: Test Example 4: herbicidal effect by soil treatment (Table 19, symbol O); format: in vivo, lambsquarters (Chenopodium album)
In short: as §2

[20] = tested on: redroot pigweed; experiment: Test Example 4: herbicidal effect by soil treatment (Table 19, symbol N); format: in vivo, redroot pigweed (Amaranthus retroflexus)
In short: as §2

[21] = tested on: rice flat sedge; experiment: Test Example 3: herbicidal effect by foliage application, Wagner pot (Table 18, symbol E); format: in vivo, rice flat sedge (Cyperus iria)
In short: as §3

[22] = tested on: chickweed; experiment: Test Example 4: herbicidal effect by soil treatment (Table 19, symbol P); format: in vivo, common chickweed (Stellaria media)
In short: as §2

[23] = tested on: Chinese sprangletop; experiment: Test Example 3: herbicidal effect by foliage application, Wagner pot (Table 18, symbol D); format: in vivo, chinese sprangletop (Leptochloa chinensis)
In short: as §3

[24] = tested on: southern crabgrass; experiment: Test Example 5: herbicidal effect by foliage application, plastic box (Table 20, symbol F); format: in vivo, southern crabgrass (Digitaria ciliaris); conditions: foliage application, 80 g/ha, 3 weeks after application
In short: as §1

[25] = tested on: velvetleaf; experiment: Test Example 5: herbicidal effect by foliage application, plastic box (Table 20, symbol M); format: in vivo, velvetleaf (Abutilon theophrasti); conditions: foliage application, 80 g/ha, 3 weeks after application
In short: as §1

[26] = amount of applied herbicide 84 g/ha
[27] = amount of applied herbicide 320 g/ha

SMILES: COc1nn(C)c(=O)c(-c2c(-c3ccsc3)sc3ccccc23)c1O [1-192]
- effect on windgrass (L) [1]: 0 (Herbicidal rate of 5% or less (almost no effect))
- G: green foxtail, herbicidal effect rating ([2]; AAH 80 g/ha): 0 (Herbicidal rate of 5% or less (almost no effect))
- I: wild oat, herbicidal effect rating ([3]; AAH 80 g/ha): 0 (Herbicidal rate of 5% or less (almost no effect))
- effect on Italian ryegrass (K) [4]: 0 (Herbicidal rate of 5% or less (almost no effect))
- F: southern crabgrass, herbicidal effect rating ([5]; AAH 80 g/ha): 0 (Herbicidal rate of 5% or less (almost no effect))
- R: persian speedwell, herbicidal effect rating ([6]; AAH 80 g/ha): 0 (Herbicidal rate of 5% or less (almost no effect))
- herbicidal effect on H (barnyard grass), rating 0-5 ([7]; 80 g/ha): 1 (Herbicidal rate of 5% or more and less than 20%)
- J: blackgrass, herbicidal effect rating ([8]; AAH 80 g/ha): 0 (Herbicidal rate of 5% or less (almost no effect))
- effect on blackgrass (J) [9]: 0 (Herbicidal rate of 5% or less (almost no effect))
- effect on lambsquarters (O) [10]: 0 (Herbicidal rate of 5% or less (almost no effect))
- K: Italian ryegrass, herbicidal effect rating ([11]; AAH 80 g/ha): 0 (Herbicidal rate of 5% or less (almost no effect))
- effect on barnyard grass (H) [12]: 0 (Herbicidal rate of 5% or less (almost no effect))
- H: barnyard grass, herbicidal effect rating ([13]; AAH 80 g/ha): 0 (Herbicidal rate of 5% or less (almost no effect))
- effect on green foxtail (G) [14]: 0 (Herbicidal rate of 5% or less (almost no effect))
- M: velvetleaf, herbicidal effect rating ([15]; AAH 80 g/ha): 0 (Herbicidal rate of 5% or less (almost no effect))
- L: windgrass, herbicidal effect rating ([16]; AAH 80 g/ha): 0 (Herbicidal rate of 5% or less (almost no effect))
- effect on wild oat (I) [17]: 0 (Herbicidal rate of 5% or less (almost no effect))
- effect on persian speedwell (R) [18]: 3 (Herbicidal rate of 40% or more and less than 70%)
- O: lambsquarters, herbicidal effect rating ([19]; AAH 80 g/ha): 0 (Herbicidal rate of 5% or less (almost no effect))
- N: redroot pigweed, herbicidal effect rating ([20]; AAH 80 g/ha): 0 (Herbicidal rate of 5% or less (almost no effect))
- herbicidal effect on E (rice flat sedge), rating 0-5 ([21]; 80 g/ha): 4 (Herbicidal rate of 70% or more and less than 90%)
- P: chickweed, herbicidal effect rating ([22]; AAH 80 g/ha): 3 (Herbicidal rate of 40% or more and less than 70%)
- herbicidal effect on D (Chinese sprangletop), rating 0-5 ([23]; 80 g/ha): 4 (Herbicidal rate of 70% or more and less than 90%)
- effect on southern crabgrass (F) [24]: 0 (Herbicidal rate of 5% or less (almost no effect))
- effect on velvetleaf (M) [25]: 0 (Herbicidal rate of 5% or less (almost no effect))

SMILES: Cc1nn(C)c(=O)c(-c2c(-c3c(F)cc(F)cc3F)sc3ccc(F)cc23)c1O [2-372]
- herbicidal effect, G: green foxtail [2, 26]: 0 (Herbicidal rate of 5% or less (almost no effect))
- herbicidal effect, I: wild oat [3, 26]: 0 (Herbicidal rate of 5% or less (almost no effect))
- herbicidal effect, F: southern crabgrass [5, 26]: 0 (Herbicidal rate of 5% or less (almost no effect))
- herbicidal effect, R: persian speedwell [6, 26]: 0 (Herbicidal rate of 5% or less (almost no effect))
- herbicidal effect on H: barnyard grass [7, 26]: 4 (Herbicidal rate of 70% or more and less than 90%)
- herbicidal effect, J: blackgrass [8, 26]: 0 (Herbicidal rate of 5% or less (almost no effect))
- herbicidal effect, K: Italian ryegrass [11, 26]: 2 (Herbicidal rate of 20% or more and less than 40%)
- herbicidal effect, H: barnyard grass [13, 26]: 0 (Herbicidal rate of 5% or less (almost no effect))
- herbicidal effect, M: velvetleaf [15, 26]: 0 (Herbicidal rate of 5% or less (almost no effect))
- herbicidal effect, L: windgrass [16, 26]: 0 (Herbicidal rate of 5% or less (almost no effect))
- herbicidal effect, O: lambsquarters [19, 26]: 0 (Herbicidal rate of 5% or less (almost no effect))
- herbicidal effect, N: redroot pigweed [20, 26]: 0 (Herbicidal rate of 5% or less (almost no effect))
- herbicidal effect on E: rice flat sedge [21, 26]: 3 (Herbicidal rate of 40% or more and less than 70%)
- herbicidal effect, P: chickweed [22, 26]: 0 (Herbicidal rate of 5% or less (almost no effect))
- herbicidal effect on D: Chinese sprangletop [23, 26]: 4 (Herbicidal rate of 70% or more and less than 90%)

SMILES: CCCC(=O)Oc1c(C)nn(C)c(=O)c1-c1c(-c2cnccc2F)sc2ccc(F)cc12 [2-384]
- herbicidal effect, G: green foxtail [2, 27]: 4 (Herbicidal rate of 70% or more and less than 90%)
- herbicidal effect, I: wild oat [3, 27]: 1 (Herbicidal rate of 5% or more and less than 20%)
- herbicidal effect, F: southern crabgrass [5, 27]: 3 (Herbicidal rate of 40% or more and less than 70%)
- herbicidal effect, R: persian speedwell [6, 27]: 4 (Herbicidal rate of 70% or more and less than 90%)
- herbicidal effect on H: barnyard grass [7, 27]: 3 (Herbicidal rate of 40% or more and less than 70%)
- herbicidal effect, J: blackgrass [8, 27]: 0 (Herbicidal rate of 5% or less (almost no effect))
- herbicidal effect, K: Italian ryegrass [11, 27]: 4 (Herbicidal rate of 70% or more and less than 90%)
- herbicidal effect, H: barnyard grass [13, 27]: 3 (Herbicidal rate of 40% or more and less than 70%)
- herbicidal effect, M: velvetleaf [15, 27]: 2 (Herbicidal rate of 20% or more and less than 40%)
- herbicidal effect, L: windgrass [16, 27]: 0 (Herbicidal rate of 5% or less (almost no effect))
- herbicidal effect, O: lambsquarters [19, 27]: 3 (Herbicidal rate of 40% or more and less than 70%)
- herbicidal effect, N: redroot pigweed [20, 27]: 4 (Herbicidal rate of 70% or more and less than 90%)
- herbicidal effect on E: rice flat sedge [21, 27]: 3 (Herbicidal rate of 40% or more and less than 70%)
- herbicidal effect, P: chickweed [22, 27]: 4 (Herbicidal rate of 70% or more and less than 90%)
- herbicidal effect on D: Chinese sprangletop [23, 27]: 3 (Herbicidal rate of 40% or more and less than 70%)

SMILES: Cc1nn(C)c(=O)c(-c2c(-c3cnccc3Cl)sc3ccc(F)cc23)c1O [2-385]
- herbicidal effect, G: green foxtail [2, 27]: 0 (Herbicidal rate of 5% or less (almost no effect))
- herbicidal effect, I: wild oat [3, 27]: 3 (Herbicidal rate of 40% or more and less than 70%)
- herbicidal effect, F: southern crabgrass [5, 27]: 0 (Herbicidal rate of 5% or less (almost no effect))
- herbicidal effect, R: persian speedwell [6, 27]: 5 (Herbicidal rate of 90% or more (almost completely withered))
- herbicidal effect on H: barnyard grass [7, 27]: 5 (Herbicidal rate of 90% or more (almost completely withered))
- herbicidal effect, J: blackgrass [8, 27]: 0 (Herbicidal rate of 5% or less (almost no effect))
- herbicidal effect, K: Italian ryegrass [11, 27]: 4 (Herbicidal rate of 70% or more and less than 90%)
- herbicidal effect, H: barnyard grass [13, 27]: 0 (Herbicidal rate of 5% or less (almost no effect))
- herbicidal effect, M: velvetleaf [15, 27]: 2 (Herbicidal rate of 20% or more and less than 40%)
- herbicidal effect, L: windgrass [16, 27]: 1 (Herbicidal rate of 5% or more and less than 20%)
- herbicidal effect, O: lambsquarters [19, 27]: 4 (Herbicidal rate of 70% or more and less than 90%)
- herbicidal effect, N: redroot pigweed [20, 27]: 3 (Herbicidal rate of 40% or more and less than 70%)
- herbicidal effect on E: rice flat sedge [21, 27]: 5 (Herbicidal rate of 90% or more (almost completely withered))
- herbicidal effect, P: chickweed [22, 27]: 3 (Herbicidal rate of 40% or more and less than 70%)
- herbicidal effect on D: Chinese sprangletop [23, 27]: 5 (Herbicidal rate of 90% or more (almost completely withered))
